Assay results: EP0497921B1, “METHOD FOR INHIBITING ENZYMATIC SYNTHESIS OF NUCLEIC ACIDS USING ISOPSORALENS” (ISAACS, Stephen T., priority 1989, dated 1991)

Tests used:
[1] = system: Molt-4 human genomic DNA target; experiment: Sterilization of genomic target before PCR (174 bp beta globin product); type: biochemical
Procedure: Four samples containing 1 µg of Molt-4 human genomic DNA target were prepared for PCR with primers KM 29 (5'-[…]) and HRI-12 (5'-[…]). These primers give a 174 bp product within the human beta globin gene. All four samples contained AMDMIP at 100 µg/ml, and were irradiated for 0, 5, 10 or 15 minutes prior to PCR amplification. […] Amplification were carried out in 1 x Taq buffer (50 mM KCl, 10 mM Tris pH 8.5, 2.5 mM MgCl2, 200 µg/ml gelatin), 175 µM each dNTP, 20 µM primer with 2.5 units of Taq polymerase and 100 µg/ml AMDMIP present during amplification. PCR was carried out for 30 cycles; one cycle = 30 sec at 94°C (denaturing), 30 sec at 55°C (primer annealing), and 60 sec at 72°C (extension). α-^32P-dCTP was used as an internal label. After amplification, the samples were analyzed for product by PAGE followed by autoradiaography.

[2] = system: calf thymus DNA; experiment: Binding of photoproduct to nucleic acid in the dark (DNA-associated tritium counts); conditions: no device, no irradiation
Procedure: The nucleic acid binding properties of photoproduct were investigated with calf thymus DNA. 200 µg/ml of ^3H-AMDMIP (1 x 10^5 CPM/ml) in Taq buffer was irradiated at room temperature with either the CE-III device or the PTI device. This irradiation was performed for 15 minutes in the absence of nucleic acid. Following the irradiations, 200 µl of the irradiated solution was mixed with 200 µl of 1000 µg/ml DNA solution in Taq buffer. Several identical samples were prepared in this manner. one set of samples was allowed to react with the DNA for 2 hours at room temperature. The other set of samples was subjected to 30 cycles of heating and cooling by placing the samples in a thermal cycler [Perkin-Elmer Cetus DNA Thermal Cycler (Part No. N8010150); each cycle involved 93°C for 30 seconds, 55°C for 30 seconds and 72°C for 1 minute]. When the DNA reactions were complete, all samples were analyzed for DNA-associated tritium counts (CPM) by following the flow chart outlined in FIgure 17.
For calculation purposes, these adducts are reported as if they represented monomers of AMDMIP. Regardless of the accuracy of this approximation, the process of irradiating ^3H-AMDMIP clearly results in a tritiated product which associates (i.e. binds) with DNA in the absence of subsequent activating wavelengths of electromagnetic radiation. […]

[3] = system: 115-mer; experiment: Crosslinkable Oligonucleotide Probe Analysis (COP) of sterilized PCR product; type: biochemical, HIV
Excerpt: Because of this, these isopsoralen-modified single strands should remain detectable by hybridization procedures. […] Preparation of Samples: The HIV 115-mer system with primers SK-38/SK-39 was used for the experiment (see Figure 36, "HIV Oligonucleotide System"). Two types of starting template were used: previously amplified 115-mer or genomic DNA, isolated from an individual known to be infected with HIV (MACS sample). For previously amplified 115-mer between 10^5 and 10^6 copies were used for starting template. For the genomic (MACS) sample, approximately 1 µg (3 x 10^5 copies) of genomic DNA were used. Two PCR samples were prepared for each type of template then amplification was carried out for either 20 or 30 cycles. One of the two PCR samples contained AMDMIP at 200 µg/ml while the other was AMDMIP free. Following amplification, the AMDMIP containing samples were divided and half were irradiated. Analysis (OH or COP) was then done on the three samples from each set (AMDMIP free, AMDMIP unirradiated, and AMDMIP irradiated) for each cycle number. The AMDMIP free samples served as control, the AMDMIP unirradiated sampes adressed the effect of non-covalently bound AMDMIP on detection, and AMDMIP irradiated samples addressed the effect of covalently bound AMDMIP on detection.
COP and OH assays were performed a follows. 10 µl of the PCR reaction mixture was added to 3.3 µl of "probe mix" [5'-labelled SK-19 (normal or monoadducted) at 10^-8 M containing EDTA and an appropriate salt mixture], overlaid with 30-40 µl of light mineral oil, then heated to 95-100°C for 5 minutes. For COP, the hybridization mixture as placed in the PTI device at 56°C and irradiated for 15 minutes. Following this, loading dyes (containing urea or formamide) were added, the sample heated to 95-100°C for 5 minutes, quick chilled on wet ice, then loaded on a denaturing PAGE gel followed by electrophoresis under denaturing conditions. For OH reactions, the hybridization mixture was incubated at 56°C for 30 minutes, loading dyes added, and aliquots loaded directly into a native PAGE gel followed by electrophoresis under native conditions. 1. Samples 1-6 contain previously amplified 115-mer that was re-amplified either 20 (samples 1,3,5) or 30 (Samples 2,4,6) cycles then detected by COP. Samples 1 & 2 are controls (without AMDMIP); samples 3 and 4 are (with AMDMIP and with light) sterilized samples; samples 5 & 6 are (with AMDMIP but without light) controls. The bands corresponding to amplified 115-mer crosslinked to labelled 41-mer probe (SK-19 MA) are the upper bands in Figure 46. Samples 11-16 are the same series except the MACS sample was used as template.

[4] = Sample 4: previously amplified 115-mer, 30 cycles, with AMDMIP and with light
[5] = Sample 5: previously amplified 115-mer, 20 cycles, with AMDMIP but without light
[6] = Sample 6: previously amplified 115-mer, 30 cycles, with AMDMIP but without light
[7] = Sample 13: MACS genomic template, 20 cycles, with AMDMIP and with light
[8] = Sample 14: MACS genomic template, 30 cycles, with AMDMIP and with light
[9] = Sample 15: MACS genomic template, 20 cycles, with AMDMIP but without light
[10] = Sample 16: MACS genomic template, 30 cycles, with AMDMIP but without light

Substance: 4'-Aminomethyl-4,5'-dimethylisopsoralen [AMDMIP]
- impact of unirradiated AMDMIP on amplification ([1]; 100 µg/ml, data not shown): no significant impact on amplification
- amplification after irradiation in the presence of AMDMIP ([1]; AMDMIP 100 µg/ml, irradiated 0, 5, 10 or 15 minutes prior to PCR, 30 cycles): no amplification of the sterilized genomic target
- ADDUCTS PER ([2]; dark reaction Room Temp. (2 hours)): 1.1
- ADDUCTS PER ([2]; dark reaction Thermally Cycled (30 cycles)): 0.9
- CPM ([3]; Sample 3: previously amplified 115-mer, 20 cycles, with AMDMIP (200 µg/ml) and with light): 1944 CPM
- CPM (%) relative to sample without AMDMIP ([3]; Sample 3: previously amplified 115-mer, 20 cycles, with AMDMIP and with light): 62%
- CPM [3, 4]: 36452 CPM
- CPM (%) relative to sample without AMDMIP [3, 4]: 83%
- CPM [3, 5]: 4480 CPM
- CPM (%) relative to sample without AMDMIP [3, 5]: 144%
- CPM [3, 6]: 39596 CPM
- CPM (%) relative to sample without AMDMIP [3, 6]: 90%
- CPM [3, 7]: 460 CPM
- CPM (%) relative to sample without AMDMIP [3, 7]: 52%
- CPM [3, 8]: 41777 CPM
- CPM (%) relative to sample without AMDMIP [3, 8]: 78%
- CPM [3, 9]: 464 CPM
- CPM (%) relative to sample without AMDMIP [3, 9]: 53%
- CPM [3, 10]: 35176 CPM
- CPM (%) relative to sample without AMDMIP [3, 10]: 66%
